Measured values from ChEMBL document CHEMBL5131495, “Discovery of unique thiazolidinone-conjugated coumarins as novel broad spectrum antibacterial agents” (Eur J Med Chem, 2022).
Values after ≈ are worked out from the molar mass of the structure shown. Active and inactive are the calls of the source. The rule behind the calls is not given here.

Legend:
Acinetobacter baumannii [1] = test: Antibacterial activity against Acinetobacter baumannii assessed as reduction in GSH activity by Ellman's method; format: functional, organism-based; conditions: DDE = dose-dependent effect
Staphylococcus aureus [2] = test: Antibacterial activity against Staphylococcus aureus assessed as inhibition of bacterial growth; format: functional
Calf thymus DNA [3] = test: Binding affinity to calf thymus DNA assessed as reduction in fluorescence intensity of acridine orange-DNA complex formation by measuring […] by competitive binding assay; format: nucleic-acid assay; conditions: Bos taurus; DDE = dose-dependent effect
Staphylococcus aureus [4] = test: Antibacterial activity against methicillin resistant Staphylococcus aureus N315 assessed as inhibition of bacterial growth; format: functional
Enterococcus faecalis = test: Antibacterial activity against Enterococcus faecalis assessed as inhibition of bacterial growth; format: functional
Staphylococcus aureus [5] = test: Antibacterial activity against Staphylococcus aureus ATCC 25923 assessed as inhibition of bacterial growth; format: functional
Staphylococcus aureus [6] = test: Antibacterial activity against Staphylococcus aureus ATCC 29213 assessed as inhibition of bacterial growth; format: functional
Klebsiella pneumoniae = test: Antibacterial activity against Klebsiella pneumoniae assessed as inhibition of bacterial growth; format: functional
Escherichia coli [7] = test: Antibacterial activity against Escherichia coli assessed as inhibition of bacterial growth; format: functional
Escherichia coli [8] = test: Antibacterial activity against Escherichia coli ATCC 25922 assessed as inhibition of bacterial growth; format: functional
Pseudomonas aeruginosa [9] = test: Antibacterial activity against Pseudomonas aeruginosa assessed as inhibition of bacterial growth; format: functional
Pseudomonas aeruginosa [10] = test: Antibacterial activity against Pseudomonas aeruginosa ATCC 27853 assessed as inhibition of bacterial growth; format: functional
Acinetobacter baumannii [11] = test: Antibacterial activity against Acinetobacter baumannii assessed as inhibition of bacterial growth; format: functional
[12] = Cytotoxicity against human endothelial cells assessed as cell viability at 10 ug/ml by CCK8 method relative to control; format: toxicity, cell-based; conditions: at 10 µg/mL, read-out: Activity
[13] = Cytotoxicity against human liver cancer cells assessed as cell viability at 10 ug/ml by CCK8 method relative to control; format: functional; conditions: read-out: Activity
[14] = Hemolytic activity in human RBC assessed as hemolysis rate at 64 times MIC relative to control; format: toxicity, cell-based, Erythrocyte; conditions: red blood cells (erythrocytes), read-out: Activity
Acinetobacter baumannii [15] = test: Anti- biofilm activity against Acinetobacter baumannii assessed as decrease in biofilm viability at 2 ug/ml by resazurin dye based assay relative to control; format: functional; conditions: dose 2 µg/ml
Cell membrane [16] = test: Induction of cell membrane depolarization in Acinetobacter baumannii assessed as increase in fluorescence intensity at MIC by DiSC35 dye-based fluorescence assay; format: subcellular; conditions: time <= 60.0 min, TDE = time-dependent effect
Cell membrane [17] = test: Induction of outer membrane permeabilization in Acinetobacter baumannii assessed as increase in fluorescence intensity at MIC by NPN-dye based fluorescence assay; format: subcellular; conditions: time <= 120.0 min
Cell membrane [18] = test: Induction of inner membrane permeabilization in Acinetobacter baumannii assessed as increase in fluorescence intensity by propidium iodide staining based fluorescence analysis; format: subcellular; conditions: DDE = dose-dependent effect
Cell membrane [19] = test: Induction of inner membrane permeabilization in Acinetobacter baumannii assessed as increase in red fluorescence intensity by fluorescence microscopic analysis
Cell membrane [20] = test: Induction of cell membrane damage in Acinetobacter baumannii assessed as increase in protein leakage; format: subcellular
Cell membrane [21] = test: Induction of cell membrane damage in Acinetobacter baumannii assessed as increase in nucleic acid leakage by measuring fold increase in absorbance at 8 times MIC by spectrophotometry; format: subcellular
Cell membrane [22] = test: Induction of cell membrane destruction in Acinetobacter baumannii assessed as reduction in metabolic activity; format: subcellular; conditions: DDE = dose-dependent effect
Acinetobacter baumannii [23] = test: Induction of ROS production in Acinetobacter baumannii by DCFH-DA staining based fluorescence analysis; format: functional; conditions: DDE = dose-dependent effect
Acinetobacter baumannii [24] = test: Induction of ROS production in Acinetobacter baumannii assessed as fold change at 16 times MIC by DCFH-DA staining based fluorescence analysis; format: functional
Acinetobacter baumannii [25] = test: Antibacterial activity against Acinetobacter baumannii assessed fold increase in malondialdehyde production measured at upto 16 times MIC; format: functional
Calf thymus DNA [26] = test: Binding affinity to calf thymus DNA assessed as hypochromic shift by UV-vis spectrophotometric analysis; format: nucleic-acid assay; conditions: Bos taurus

| SMILES | MIC (Staphylococcus aureus [2]) [µg/mL] | MIC (Staphylococcus aureus [4]) [µg/mL] | MIC (Enterococcus faecalis) [µg/mL] | MIC (Staphylococcus aureus [5]) [µg/mL] | MIC (Staphylococcus aureus [6]) [µg/mL] | MIC (Klebsiella pneumoniae) [µg/mL] | MIC (Escherichia coli [7]) [µg/mL] | MIC (Escherichia coli [8]) [µg/mL] | MIC (Pseudomonas aeruginosa [9]) [µg/mL] | MIC (Pseudomonas aeruginosa [10]) [µg/mL] | MIC (Acinetobacter baumannii [11]) [µg/mL] | further results |
| --- | --- | --- | --- | --- | --- | --- | --- | --- | --- | --- | --- | --- |
| Cc1cc(=O)oc2cc(/N=C3/S/C(=C\c4c[nH]c5ccccc45)C(=O)N3CCO)ccc12 | 2 (≈ 4.49 µM) | 0.25 (≈ 0.561 µM) | 0.25 (≈ 0.561 µM) | 0.25 (≈ 0.561 µM) | 0.25 (≈ 0.561 µM) | 0.5 (≈ 1.12 µM) | 0.25 (≈ 0.561 µM) | 1 (≈ 2.24 µM) | 256 (≈ 575 µM) | 32 (≈ 71.8 µM) | 0.25 (≈ 0.561 µM) | Activity (Acinetobacter baumannii [1]): Dde; Activity (Calf thymus DNA [3]): Dde; viability at 10 ug/ml [12]: 75%; viability at 10 µg/mL [13]: 47%; hemolysis at 64 times MIC [14]: < 5%; Activity (Acinetobacter baumannii [15]): 45%; Activity (Cell membrane [16]): Tde; Activity (Cell membrane [17]): Active; Activity (Cell membrane [18]): Dde; Activity (Cell membrane [19]): Active; Activity (Cell membrane [20]): Active; fold change (FC) (Cell membrane [21]): 3.8; Activity (Cell membrane [22]): Dde; Activity (Acinetobacter baumannii [23]): Dde; fold change (FC) (Acinetobacter baumannii [24]): 5.3; fold change (FC) (Acinetobacter baumannii [25]): 3; Activity (Calf thymus DNA [26]): Active |
| Cc1cc(=O)oc2cc(/N=C3/S/C(=C\c4csc5ccccc45)C(=O)N3CCO)ccc12 | 128 (≈ 277 µM) | 128 (≈ 277 µM) | 64 (≈ 138 µM) | 256 (≈ 553 µM) | 128 (≈ 277 µM) | 32 (≈ 69.2 µM) | 128 (≈ 277 µM) | 64 (≈ 138 µM) | 128 (≈ 277 µM) | 64 (≈ 138 µM) | 8 (≈ 17.3 µM) |  |
| Cc1cc(=O)oc2cc(/N=C3/S/C(=C\c4ccco4)C(=O)N3CCO)ccc12 | 128 (≈ 323 µM) | 8 (≈ 20.2 µM) | 16 (≈ 40.4 µM) | 256 (≈ 646 µM) | 32 (≈ 80.7 µM) | 128 (≈ 323 µM) | 128 (≈ 323 µM) | 4 (≈ 10.1 µM) | 64 (≈ 161 µM) | 32 (≈ 80.7 µM) | 1 (≈ 2.52 µM) |  |
| Cc1cc(=O)oc2cc(/N=C3/S/C(=C\c4c[nH]c5cc(Cl)ccc45)C(=O)N3CCO)ccc12 | 16 (≈ 33.3 µM) | 8 (≈ 16.7 µM) | 4 (≈ 8.33 µM) | 8 (≈ 16.7 µM) | 64 (≈ 133 µM) | 8 (≈ 16.7 µM) | 8 (≈ 16.7 µM) | 16 (≈ 33.3 µM) | 128 (≈ 267 µM) | 64 (≈ 133 µM) | 4 (≈ 8.33 µM) |  |
| Cc1cc(=O)oc2cc(/N=C3/S/C(=C\c4ccc(O)c(Cl)c4)C(=O)N3CCO)ccc12 | 32 (≈ 70 µM) | 64 (≈ 140 µM) | 8 (≈ 17.5 µM) | 128 (≈ 280 µM) | 256 (≈ 560 µM) | 32 (≈ 70 µM) | 16 (≈ 35 µM) | 32 (≈ 70 µM) | 32 (≈ 70 µM) | 4 (≈ 8.75 µM) | 16 (≈ 35 µM) |  |
| Cc1cc(=O)oc2cc(/N=C3/S/C(=C\c4ccc(F)cc4F)C(=O)N3CCO)ccc12 | 32 (≈ 72.3 µM) | 64 (≈ 145 µM) | 2 (≈ 4.52 µM) | 4 (≈ 9.04 µM) | 32 (≈ 72.3 µM) | 64 (≈ 145 µM) | 64 (≈ 145 µM) | 128 (≈ 289 µM) | 64 (≈ 145 µM) | 32 (≈ 72.3 µM) | 64 (≈ 145 µM) |  |
| Cc1cc(=O)oc2cc(/N=C3/SCC(=O)N3CCO)ccc12 | 128 (≈ 402 µM) | 128 (≈ 402 µM) | 128 (≈ 402 µM) | 16 (≈ 50.3 µM) | 64 (≈ 201 µM) | 128 (≈ 402 µM) | 2 (≈ 6.28 µM) | 64 (≈ 201 µM) | 128 (≈ 402 µM) | 32 (≈ 101 µM) | 0.5 (≈ 1.57 µM) |  |
| CCn1cc(/C=C2\S/C(=N/c3ccc4c(C)cc(=O)oc4c3)N(CCO)C2=O)c2ccccc21 | 128 (≈ 270 µM) | 128 (≈ 270 µM) | 128 (≈ 270 µM) | 64 (≈ 135 µM) | 128 (≈ 270 µM) | 64 (≈ 135 µM) | 64 (≈ 135 µM) | 128 (≈ 270 µM) | 64 (≈ 135 µM) | 32 (≈ 67.6 µM) | 64 (≈ 135 µM) |  |
| Cc1cc(=O)oc2cc(/N=C3/S/C(=C\c4nccs4)C(=O)N3CCO)ccc12 | 16 (≈ 38.7 µM) | 64 (≈ 155 µM) | 4 (≈ 9.67 µM) | 1 (≈ 2.42 µM) | 64 (≈ 155 µM) | 2 (≈ 4.84 µM) | 128 (≈ 310 µM) | 256 (≈ 619 µM) | 128 (≈ 310 µM) | 128 (≈ 310 µM) | 1 (≈ 2.42 µM) |  |
| Cc1cc(=O)oc2cc(/N=C3/S/C(=C\c4ccc(O)c(Br)c4)C(=O)N3CCO)ccc12 | 16 (≈ 31.9 µM) | 128 (≈ 255 µM) | 64 (≈ 128 µM) | 64 (≈ 128 µM) | 128 (≈ 255 µM) | 64 (≈ 128 µM) | 256 (≈ 511 µM) | 32 (≈ 63.8 µM) | 32 (≈ 63.8 µM) | 32 (≈ 63.8 µM) | 64 (≈ 128 µM) |  |
